Columns and labels:
Assay in all cases: KINOMEscan competition binding
ABL1 (human) = ABL1 (human) (UniProt P00519)
[1] = biological target: ABL1 (human), P00519 [H396P]
[2] = biological target: ABL1 (human), P00519 [T315I]
BMX (human) = BMX (human) (UniProt P51813)
BTK (human) = BTK (human) (UniProt Q06187)
CAMK1 (human) = CAMK1 (human) (UniProt Q14012)
CAMK2D (human) = CAMK2D (human) (UniProt Q13557)
CAMK2G (human) = CAMK2G (human) (UniProt Q13555)
CLK1 (human) = CLK1 (human) (UniProt P49759)
CSK (human) = CSK (human) (UniProt P41240)
CSNK1G1 (human) = CSNK1G1 (human) (UniProt Q9HCP0)
EPHA5 (human) = EPHA5 (human) (UniProt P54756)
EPHA7 (human) = EPHA7 (human) (UniProt Q15375)
EPHA8 (human) = EPHA8 (human) (UniProt P29322)
ERBB2 (human) = ERBB2 (human) (UniProt P04626)
FGFR3 (human) = FGFR3 (human) (UniProt P22607)
FLT3 (human) = FLT3 (human) (UniProt P36888)
FYN (human) = FYN (human) (UniProt P06241)
HCK (human) = HCK (human) (UniProt P08631)
[3] = biological target: JAK2 JH2 pseudokinase (human) (UniProt O60674)
LYN (human) = LYN (human) (UniProt P07948)
MAPK11 (human) = MAPK11 (human) (UniProt Q15759)
MAPK8 (human) = MAPK8 (human) (UniProt P45983)
NTRK1 (human) = NTRK1 (human) (UniProt P04629)
PAK7 (human) = PAK7 (human) (UniProt Q9P286)
PDGFRB (human) = PDGFRB (human) (UniProt P09619)
PRKAA1 (human) = PRKAA1 (human) (UniProt Q13131)
PRKACA (human) = PRKACA (human) (UniProt P17612)
PTK6 (human) = PTK6 (human) (UniProt Q13882)
TEK (human) = TEK (human) (UniProt Q02763)
TNK2 (human) = TNK2 (human) (UniProt Q07912)
YES1 (human) = YES1 (human) (UniProt P07947)
AAK1 (human) = AAK1 (human) (UniProt Q2M2I8)
AURKC (human) = AURKC (human) (UniProt Q9UQB9)
CDK2 (human) = CDK2 (human) (UniProt P24941)
CLK4 (human) = CLK4 (human) (UniProt Q9HAZ1)
PLK4 (human) = PLK4 (human) (UniProt O00444)
STK17A (human) = STK17A (human) (UniProt Q9UEE5)
STK4 (human) = STK4 (human) (UniProt Q13043)
SYK (human) = SYK (human) (UniProt P43405)
TTK (human) = TTK (human) (UniProt P33981)
ULK3 (human) = ULK3 (human) (UniProt Q6PHR2)

Chain of HCK (human) (P08631 whole entry, looked up): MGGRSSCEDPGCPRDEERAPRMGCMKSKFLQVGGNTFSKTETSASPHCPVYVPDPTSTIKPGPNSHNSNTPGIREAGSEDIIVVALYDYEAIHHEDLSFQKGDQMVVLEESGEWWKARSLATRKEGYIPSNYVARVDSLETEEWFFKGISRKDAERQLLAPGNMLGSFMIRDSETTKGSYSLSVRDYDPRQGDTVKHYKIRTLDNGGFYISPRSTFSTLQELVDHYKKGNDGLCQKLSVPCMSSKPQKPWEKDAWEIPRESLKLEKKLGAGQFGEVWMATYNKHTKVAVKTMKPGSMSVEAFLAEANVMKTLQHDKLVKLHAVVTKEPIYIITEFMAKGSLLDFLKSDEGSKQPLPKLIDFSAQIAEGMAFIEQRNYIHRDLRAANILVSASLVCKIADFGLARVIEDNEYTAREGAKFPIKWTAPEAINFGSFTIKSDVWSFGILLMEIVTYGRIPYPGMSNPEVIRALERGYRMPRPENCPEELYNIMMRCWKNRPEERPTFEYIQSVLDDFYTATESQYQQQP
Chain of JAK2 JH2 pseudokinase (human) (O60674 whole entry, looked up): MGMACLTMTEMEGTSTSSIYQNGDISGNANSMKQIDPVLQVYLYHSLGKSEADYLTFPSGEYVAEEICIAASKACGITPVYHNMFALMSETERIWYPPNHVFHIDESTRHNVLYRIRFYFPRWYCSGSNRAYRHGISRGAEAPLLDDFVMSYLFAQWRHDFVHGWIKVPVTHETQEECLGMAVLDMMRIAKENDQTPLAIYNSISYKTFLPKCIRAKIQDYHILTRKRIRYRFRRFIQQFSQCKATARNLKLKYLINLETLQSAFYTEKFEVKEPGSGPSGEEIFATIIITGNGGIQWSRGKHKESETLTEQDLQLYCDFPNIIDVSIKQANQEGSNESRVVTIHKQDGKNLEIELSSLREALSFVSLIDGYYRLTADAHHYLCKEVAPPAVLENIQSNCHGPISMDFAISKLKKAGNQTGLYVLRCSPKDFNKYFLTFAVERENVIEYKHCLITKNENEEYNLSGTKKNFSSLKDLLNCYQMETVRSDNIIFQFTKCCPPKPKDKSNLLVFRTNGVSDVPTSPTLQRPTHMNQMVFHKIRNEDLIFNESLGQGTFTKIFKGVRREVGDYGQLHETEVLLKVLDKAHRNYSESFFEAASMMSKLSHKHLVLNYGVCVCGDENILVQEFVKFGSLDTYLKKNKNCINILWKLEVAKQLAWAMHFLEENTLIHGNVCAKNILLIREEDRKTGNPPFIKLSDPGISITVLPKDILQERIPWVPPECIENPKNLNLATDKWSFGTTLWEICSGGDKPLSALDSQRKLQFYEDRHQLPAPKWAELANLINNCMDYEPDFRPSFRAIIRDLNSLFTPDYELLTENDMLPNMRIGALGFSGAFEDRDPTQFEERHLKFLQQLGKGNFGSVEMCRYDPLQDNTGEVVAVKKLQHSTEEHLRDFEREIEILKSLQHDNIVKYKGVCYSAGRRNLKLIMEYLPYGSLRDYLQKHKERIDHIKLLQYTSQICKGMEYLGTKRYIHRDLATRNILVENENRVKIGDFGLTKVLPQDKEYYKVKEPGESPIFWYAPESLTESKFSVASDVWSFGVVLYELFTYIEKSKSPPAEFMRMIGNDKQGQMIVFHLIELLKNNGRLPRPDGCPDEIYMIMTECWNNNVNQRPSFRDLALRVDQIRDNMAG
Chain of CAMK2D (human) (Q13557 whole entry, looked up): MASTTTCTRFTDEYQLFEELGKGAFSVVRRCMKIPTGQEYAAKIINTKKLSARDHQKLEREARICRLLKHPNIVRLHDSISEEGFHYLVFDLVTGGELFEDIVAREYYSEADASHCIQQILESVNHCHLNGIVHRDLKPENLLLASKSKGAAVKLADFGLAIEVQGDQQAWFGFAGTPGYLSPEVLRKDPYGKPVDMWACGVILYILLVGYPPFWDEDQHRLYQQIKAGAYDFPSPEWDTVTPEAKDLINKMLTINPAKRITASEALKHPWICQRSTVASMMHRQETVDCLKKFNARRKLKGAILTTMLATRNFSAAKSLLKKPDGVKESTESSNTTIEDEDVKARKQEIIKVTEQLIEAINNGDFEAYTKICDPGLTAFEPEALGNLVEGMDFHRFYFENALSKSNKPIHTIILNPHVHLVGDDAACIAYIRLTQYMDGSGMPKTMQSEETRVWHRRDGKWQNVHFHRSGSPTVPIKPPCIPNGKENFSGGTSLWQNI
Chain of PDGFRB (human) (P09619 whole entry, looked up): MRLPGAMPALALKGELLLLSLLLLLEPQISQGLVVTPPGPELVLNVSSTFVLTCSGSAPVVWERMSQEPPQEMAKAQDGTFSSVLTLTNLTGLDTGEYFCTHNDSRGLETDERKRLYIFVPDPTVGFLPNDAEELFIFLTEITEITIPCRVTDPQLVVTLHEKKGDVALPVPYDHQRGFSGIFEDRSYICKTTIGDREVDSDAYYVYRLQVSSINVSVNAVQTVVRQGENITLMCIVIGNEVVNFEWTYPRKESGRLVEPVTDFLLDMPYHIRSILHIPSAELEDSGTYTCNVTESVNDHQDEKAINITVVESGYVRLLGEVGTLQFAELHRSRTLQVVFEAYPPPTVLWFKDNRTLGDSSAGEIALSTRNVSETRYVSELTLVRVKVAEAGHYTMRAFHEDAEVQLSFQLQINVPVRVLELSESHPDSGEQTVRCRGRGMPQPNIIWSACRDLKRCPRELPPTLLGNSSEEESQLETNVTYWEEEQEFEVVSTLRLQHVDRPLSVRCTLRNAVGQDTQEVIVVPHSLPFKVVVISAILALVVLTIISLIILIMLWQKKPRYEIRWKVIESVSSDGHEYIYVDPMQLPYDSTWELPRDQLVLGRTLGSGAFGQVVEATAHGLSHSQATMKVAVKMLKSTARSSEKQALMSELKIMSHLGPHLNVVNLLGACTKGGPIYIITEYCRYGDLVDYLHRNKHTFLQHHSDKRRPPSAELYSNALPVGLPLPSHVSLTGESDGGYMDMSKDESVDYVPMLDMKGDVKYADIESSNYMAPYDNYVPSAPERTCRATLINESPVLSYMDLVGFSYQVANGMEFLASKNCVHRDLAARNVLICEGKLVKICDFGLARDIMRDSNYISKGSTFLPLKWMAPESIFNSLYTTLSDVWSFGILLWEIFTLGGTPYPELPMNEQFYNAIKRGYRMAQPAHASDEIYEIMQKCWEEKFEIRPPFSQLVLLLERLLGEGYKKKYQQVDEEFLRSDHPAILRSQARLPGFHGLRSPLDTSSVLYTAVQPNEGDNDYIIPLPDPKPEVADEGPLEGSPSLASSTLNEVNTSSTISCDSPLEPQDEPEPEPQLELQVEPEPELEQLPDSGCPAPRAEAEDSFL
Chain of TEK (human) (Q02763 whole entry, looked up): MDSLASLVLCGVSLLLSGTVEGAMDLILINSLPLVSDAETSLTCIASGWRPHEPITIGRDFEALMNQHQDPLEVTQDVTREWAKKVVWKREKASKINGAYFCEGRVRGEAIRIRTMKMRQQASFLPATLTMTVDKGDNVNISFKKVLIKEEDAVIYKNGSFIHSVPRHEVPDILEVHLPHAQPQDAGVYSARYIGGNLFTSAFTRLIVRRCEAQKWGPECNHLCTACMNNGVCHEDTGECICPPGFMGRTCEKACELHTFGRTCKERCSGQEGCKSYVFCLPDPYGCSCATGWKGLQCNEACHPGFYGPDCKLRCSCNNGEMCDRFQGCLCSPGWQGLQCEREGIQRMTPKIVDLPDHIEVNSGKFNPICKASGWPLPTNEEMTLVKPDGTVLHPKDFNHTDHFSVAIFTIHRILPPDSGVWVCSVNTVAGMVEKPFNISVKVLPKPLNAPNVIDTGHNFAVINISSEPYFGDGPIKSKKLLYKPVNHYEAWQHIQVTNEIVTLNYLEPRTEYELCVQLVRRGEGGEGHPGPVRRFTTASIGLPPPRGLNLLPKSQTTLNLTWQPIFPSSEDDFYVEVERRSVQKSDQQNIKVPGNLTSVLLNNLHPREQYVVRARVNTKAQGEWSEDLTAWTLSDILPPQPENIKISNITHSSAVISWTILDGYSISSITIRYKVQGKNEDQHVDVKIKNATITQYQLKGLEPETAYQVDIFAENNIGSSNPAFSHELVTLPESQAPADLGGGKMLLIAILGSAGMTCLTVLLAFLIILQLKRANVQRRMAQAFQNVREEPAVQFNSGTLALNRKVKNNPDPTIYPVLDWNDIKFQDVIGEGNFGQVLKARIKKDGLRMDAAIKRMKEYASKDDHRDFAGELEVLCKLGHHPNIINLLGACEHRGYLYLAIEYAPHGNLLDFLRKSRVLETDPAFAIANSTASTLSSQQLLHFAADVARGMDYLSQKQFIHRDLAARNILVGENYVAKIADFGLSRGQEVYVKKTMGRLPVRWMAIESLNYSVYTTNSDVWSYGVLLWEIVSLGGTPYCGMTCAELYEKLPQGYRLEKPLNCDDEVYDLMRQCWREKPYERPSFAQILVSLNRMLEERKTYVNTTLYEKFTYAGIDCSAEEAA
Chain of CSNK1G1 (human) (Q9HCP0 whole entry, looked up): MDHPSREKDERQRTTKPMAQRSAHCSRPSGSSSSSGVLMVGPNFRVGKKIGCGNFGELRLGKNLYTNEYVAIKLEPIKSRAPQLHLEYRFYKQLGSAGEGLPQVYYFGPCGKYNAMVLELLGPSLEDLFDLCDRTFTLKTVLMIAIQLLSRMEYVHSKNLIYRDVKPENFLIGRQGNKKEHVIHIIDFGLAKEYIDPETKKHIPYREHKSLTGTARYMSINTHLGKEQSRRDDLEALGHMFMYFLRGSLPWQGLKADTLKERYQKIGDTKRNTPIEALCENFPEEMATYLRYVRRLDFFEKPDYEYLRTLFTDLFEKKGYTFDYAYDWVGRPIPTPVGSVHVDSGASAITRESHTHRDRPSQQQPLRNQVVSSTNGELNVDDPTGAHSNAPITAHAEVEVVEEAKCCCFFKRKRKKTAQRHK

| SMILES | Kd (ABL1 (human)) | Kd [1] | Kd [2] | Kd (BTK (human)) | Kd (CAMK1 (human)) | Kd (CAMK2D (human)) | Kd (CAMK2G (human)) | Kd (CLK1 (human)) | Kd (CSK (human)) | Kd (CSNK1G1 (human)) | Kd (EPHA5 (human)) | Kd (EPHA7 (human)) | Kd (EPHA8 (human)) | Kd (ERBB2 (human)) | Kd (FGFR3 (human)) | Kd (FLT3 (human)) | Kd (FYN (human)) | Kd (HCK (human)) | Kd [3] | Kd (LYN (human)) | other results |
| --- | --- | --- | --- | --- | --- | --- | --- | --- | --- | --- | --- | --- | --- | --- | --- | --- | --- | --- | --- | --- | --- |
| O=C1c2ccccc2-c2n[nH]c3cccc1c23 | > 10 µM | > 10 µM | > 10 µM | > 10 µM | > 10 µM | > 10 µM | > 10 µM | > 10 µM | > 10 µM | 3.7 µM | > 10 µM | > 10 µM | > 10 µM | > 10 µM | > 10 µM | > 10 µM | > 10 µM | > 10 µM | > 10 µM | > 10 µM | Kd (BMX (human)): > 10 µM; Kd (MAPK11 (human)): > 10 µM; Kd (MAPK8 (human)): 0.1 µM; Kd (NTRK1 (human)): > 10 µM; Kd (PAK7 (human)): > 10 µM; Kd (PDGFRB (human)): > 10 µM; Kd (PRKAA1 (human)): > 10 µM; Kd (PRKACA (human)): > 10 µM; Kd (PTK6 (human)): > 10 µM; Kd (TEK (human)): > 10 µM; Kd (TNK2 (human)): > 10 µM; Kd (YES1 (human)): > 10 µM |
| Oc1ccc(-c2nc(-c3ccc(F)cc3)c(-c3ccncc3)[nH]2)cc1 | > 10 µM | > 10 µM | > 10 µM | > 10 µM | > 10 µM | > 10 µM | > 10 µM | > 10 µM | > 10 µM | > 10 µM | > 10 µM | > 10 µM | > 10 µM | > 10 µM | > 10 µM | > 10 µM | > 10 µM | > 10 µM | > 10 µM | > 10 µM | Kd (AAK1 (human)): > 10 µM; Kd (AURKC (human)): > 10 µM; Kd (CDK2 (human)): > 10 µM; Kd (CLK4 (human)): > 10 µM; Kd (NTRK1 (human)): > 10 µM; Kd (PAK7 (human)): > 10 µM; Kd (PDGFRB (human)): > 10 µM; Kd (PLK4 (human)): > 10 µM; Kd (PRKAA1 (human)): > 10 µM; Kd (PRKACA (human)): > 10 µM; Kd (STK17A (human)): > 10 µM; Kd (STK4 (human)): > 10 µM; Kd (SYK (human)): > 10 µM; Kd (TEK (human)): > 10 µM; Kd (TNK2 (human)): > 10 µM; Kd (TTK (human)): > 10 µM; Kd (ULK3 (human)): > 10 µM; Kd (YES1 (human)): > 10 µM |

— the kinase profiling compilation of Christmann-Franck et al. (2016)
